From US12280047B2, “Treatment of aneurysms” (Georgia State Research Foundation, Inc., priority 2017, dated 2025)

Columns and labels:
ApoE−/− mice [1] = assay: OMBA, NBA and 1MT treating AngII-induced abdominal aortic aneurysm (Example 15); type: in vivo; details: for Incidence of AAA: ApoE−/− mice, AngII 1,000 ng/kg/min four weeks, then drug in drinking water 6 weeks, mice with AAA/group size
Description: To test the effect of other Kynurenine pathway inhibitors on treating AngII-induced abdominal aortic aneurysm, male ApoE^−/− mice at age 8 weeks were infused with AngII (1,000 ng/kg/min) or saline (0.9% sodium chloride) by Alzet osmotic pumps for four weeks. Four weeks later, Ang-II treated mice were divided into […] groups of 18 and administered o-methoxybenzo ylalanine (OMB), (m-nitrobenzoyl)alanine (NBA), 1-methyltryptophan (1MT) or vehicle control (water) by drinking water for 6 weeks.
To quantify AAA incidence and size, the maximum width of abdominal aorta was measured with Image Pro Plus software (Media Cybernetics). Aneurysm incidence was quantified based on a definition of aneurysm as an external width of the suprarenal aorta that was increased by 50% or greater compared with aortas from saline-infused mice. The average diameter of the normal suprarenal aorta in control mice is 0.8 mm. Therefore, a threshold of 1.22 mm as evidence of aneurysm formation was set. […] Incidence of AAA among the various groups of mice is outlined in FIG. 31A and Table 5 below.

HASMCs = assay: MMP2 expression and activity in HASMCs incubated with metabolites of Trp degradation; type: cell-based, human
From the text: J Immunol. […] Neuropharmacology. […] Proc Natl Acad Sci USA.

MMP2 [2] = assay: MMP2 expression and activity in aortas of 3-HAA-injected mice; type: in vivo; details: 3-HAA 200 mg/kg/d i.p., 6 weeks; ApoE−/− and ApoE−/−/IDO−/− mice; vs vehicle-treated mice
Description: ApoE^−/− and ApoE^−/−/IDO^−/− mice at age 8 weeks on a chow diet were intraperitoneally injected with 3-HAA (200 mg/kg. d) or vehicle for 6 weeks. 3-HAA was dissolved in […] and further diluted in Captisol (Captisol Technology).
Circ Res. (2014) 114:480-92.
The evaluation of MMP activities in cells and aortas was performed as described previously in: Satoh K, et al., Cyclophilin A enhances vascular oxidative stress and the development of angiotensin II-induced aortic aneurysms. Nat Med. (2009) 15:649-56; Becerra A, et al., Increased activity of indoleamine 2,3-dioxygenase in serum from acutely infected dengue patients linked to gamma interferon antiviral function. J Gen Virol. (2009) 90:810-7; Holmes E W. Determination of serum kynurenine and hepatic tryptophan dioxygenase activity by high-performance liquid chromatography. Anal Biochem. (1988) 172:518-25; Forrest C M, et al., Kynurenine pathway metabolism in patients with osteoporosis after 2 years of drug treatment. Clin Exp Pharmacol Physiol. […]
To ascertain the effect of 3-HAA in MMP2 expression in vivo, ApoE^−/− and ApoE^−/−/IDO^−/− mice were intra-peritoneally treated with vehicle or 3-HAA (200 mg/kg/d) for 6 weeks. Corresponding increases in 3-HAA were detected in the plasma (FIG. 6F) and aortas (FIGS. 6D and 6E) of 3-HAA-injected ApoE^−/− and ApoE^−/−/IDO^−/− mice. […]

MMP2 [3] = assay: MMP2 in isolated mouse aortas incubated with 3-HAA ex vivo; details: 400 μM 3-HAA, 48 hours, aortas from ApoE−/− and ApoE−/−/IDO−/− mice
ApoE−/− mice [4] = assay: Serum kynurenine pathway metabolites in AngII mice treated with OMBA, NBA, 1MT (Example 15); type: in vivo
Description: The culture medium was centrifuged to pellet the cells to avoid contamination from the cells, and the supernatant was filtered ([…]) before use. Sample preparation for plasma was operated as described previously (Becerra A, et al., Increased activity of indoleamine 2,3-dioxygenase in serum from acutely infected dengue patients linked to gamma interferon antiviral function. J Gen Virol. (2009) 90:810-7; Holmes E W. Determination of serum kynurenine and hepatic tryptophan dioxygenase activity by high-performance liquid chromatography. Anal Biochem. (1988) 172:518-25). 200 μL of plasma was mixed by vortex in a small polyethylene conical tube with 1/10 volume of ice cold 2.4 mol/L perchloric acid. The cloudy suspension was chilled on ice for 15 min and then centrifuged at 10,000 g for 2 min. The clear protein-free supernatant was analyzed directly.
Circ Res. (2014) 114:480-92. Kyn content was estimated along with standards ranging from 0.5-20 μM L-kynurenine (Sigma, K8625), and Trp level was assessed along standards ranging from 1-25 μM DL-Tryptophan (Sigma, 162698), using a GraceVydac C18 column (250×4.6 mm, 5.0 The mobile phase was 20 mM sodium acetate at pH=4.5. The flow rate was 1 ml/min. The column effluent was monitored at 360 nm (Kyn) and 280 nm (Trp) by a UV detector.
3-HAA was measured by HPLC as described previously in Forrest C M, et al., Kynurenine pathway metabolism in patients with osteoporosis after 2 years of drug treatment. Clin Exp Pharmacol Physiol. (2006) 33:1078-87. 3-HAA content was estimated along with standards ranging from 1-200 nM 3-Hydroxyanthranilic acid (Santa Cruz, sc-216460), using a GraceVydac C18 column (250×4.6 mm, 5.0 The mobile phase consisted of 25 mM sodium acetate (pH=5.5) and methanol (90:10 v/v) was pumped at a flow rate of 1 ml/min. Fluorescent detection at excitation 320 nm and emission 420 was used. […]

[5] = concentration- and time-dependent manner

SMILES | Incidence of AAA (ApoE−/− mice [1]) | MMP2 expression and activity (HASMCs; 48 hours, Kyn 100 μM, 3-HK 100 μM, KA 75 μM, AA 100 μM, 3-HAA 200 μM, XA 200 μM, QA 1 mM, immunoblot and zymography) | expression and activity of MMP2 (HASMCs; [5]) | phosphorylation of Elk1 at Ser383 (HASMCs; [5]) | MMP2 expression and activity in aortas (MMP2 [2]) | MMP2 expression and activity in isolated aortas (MMP2 [3]) | aortic weight to body weight ratio (ApoE−/− mice [1]; AngII-administered mice) | maximal abdominal aortic diameter (ApoE−/− mice [1]; AngII-administered mice) | Serum levels of tryptophan (ApoE−/− mice [4]; AngII-administered mice, compared to control mice) | Levels of anthranilic acid (serum) (ApoE−/− mice [4]; compared to AngII alone) | Levels of kynurenic acid (serum) (ApoE−/− mice [4]; compared to AngII alone)
Cn1cc(C[C@H](N)C(=O)O)c2ccccc21 [1MT, 1-methyltryptophan] | 9/18 |  |  |  |  |  |  |  |  |  | 
Nc1c(O)cccc1C(=O)O [3-HAA, 3-Hydroxyanthranilic acid] |  | dramatic increase | induced | induced | remarkably increased | significantly upregulated |  |  |  |  | 
COc1ccccc1C(=O)NC(C)C(=O)O (stereo not drawn) [OMBA, o-Methoxybenzoylalanine] | 5/18 |  |  |  |  |  | lower | lower | decreased | elevated | elevated
